In ChEMBL document CHEMBL5360540, “Antitumor effect of 3-(quinolin-2-ylmethylene)-4,6-dimethyl-5-hydroxy-7-azaoxindole down-regulating the Gas6-Axl axis” (Eur J Med Chem, 2023):
The source made the active and inactive calls. No cut-off for these calls is given here.

Columns and labels:
[1] = system: PANC-1; assay: Cytotoxicity against human PANC-1 cells assessed as inhibition of cell growth at 30 uM incubated for 48 hrs by MTT assay relative to control; type: functional
[2] = system: MCF7; assay: Cytotoxicity against human MCF7 cells assessed as inhibition of cell growth at 30 uM incubated for 48 hrs by MTT assay relative to control; type: functional
[3] = Safety index, ratio of IC50 for CHO-K1 cells to IC50 for human PANC-1 cells; type: toxicity; conditions: Chinese hamster (CHO-K1), CHO-K1 cells versus PANC-1 cells, read-out: Ratio IC50
[4] = system: MDA-MB-231; assay: Cytotoxicity against human MDA-MB-231 cells assessed as inhibition of cell growth incubated for 48 hrs by MTT assay; type: functional, cell-based; conditions: MDA-MB-231, 48 h
[5] = Safety index, ratio of IC50 for HEK293 cells to IC50 for human DU-145 cells; type: toxicity; conditions: HEK293 cells versus DU-145 cells, read-out: Ratio IC50
[6] = system: A549; assay: Cytotoxicity against human A549 cells assessed as inhibition of cell growth incubated for 48 hrs by MTT assay; type: functional, cell-based; conditions: A549, 48 h
[7] = system: HT-29; assay: Cytotoxicity against human HT-29 cells assessed as inhibition of cell growth incubated for 48 hrs by MTT assay; type: functional, cell-based; conditions: HT-29, 48 h
[8] = Safety index, ratio of IC50 for CHO-K1 cells to IC50 for human DU-145 cells; type: toxicity; conditions: Chinese hamster (CHO-K1), CHO-K1 cells versus DU-145 cells, read-out: Ratio IC50
[9] = Cytotoxicity against CHO-K1 cells assessed as inhibition of cell growth incubated for 48 hrs by MTT assay; type: toxicity, cell-based, Cricetulus griseus; conditions: Chinese hamster
[10] = Safety index, ratio of IC50 for HEK293 cells to IC50 for human U-937 cells; type: toxicity; conditions: HEK293 cells versus U-937 cells, read-out: Ratio IC50
[11] = Safety index, ratio of IC50 for HEK293 cells to IC50 for human MCF7 cells; type: toxicity; conditions: HEK293 cells versus MCF7 cells, read-out: Ratio IC50
[12] = Cytotoxicity against HEK293 cells assessed as inhibition of cell growth incubated for 48 hrs by MTT assay; type: toxicity, cell-based; conditions: human
[13] = Safety index, ratio of IC50 for CHO-K1 cells to IC50 for human A549 cells; type: toxicity; conditions: Chinese hamster (CHO-K1), CHO-K1 cells versus A549 cells, read-out: Ratio IC50
[14] = Safety index, ratio of IC50 for CHO-K1 cells to IC50 for human MDA-MB-231 cells; type: toxicity; conditions: Chinese hamster (CHO-K1), CHO-K1 cells versus MDA-MB-231 cells, read-out: Ratio IC50
[15] = Safety index, ratio of IC50 for CHO-K1 cells to IC50 for human MCF7 cells; type: toxicity; conditions: Chinese hamster (CHO-K1), CHO-K1 cells versus MCF7 cells, read-out: Ratio IC50
[16] = system: DU-145; assay: Cytotoxicity against human DU-145 cells assessed as inhibition of cell growth incubated for 48 hrs by MTT assay; type: functional, cell-based; conditions: DU-145, 48 h
[17] = Safety index, ratio of IC50 for HEK293 cells to IC50 for human PANC-1 cells; type: toxicity; conditions: HEK293 cells versus PANC-1 cells, read-out: Ratio IC50
[18] = system: PANC-1; assay: Cytotoxicity against human PANC-1 cells assessed as inhibition of cell growth incubated for 48 hrs by MTT assay; type: functional, cell-based; conditions: PANC-1, 48 h
[19] = Safety index, ratio of IC50 for HEK293 cells to IC50 for human MDA-MB-231 cells; type: toxicity; conditions: HEK293 cells versus MDA-MB-231 cells, read-out: Ratio IC50
[20] = system: U-937; assay: Cytotoxicity against human U-937 cells assessed as inhibition of cell growth incubated for 48 hrs by MTT assay; type: functional, cell-based; conditions: U-937, 48 h
[21] = Safety index, ratio of IC50 for CHO-K1 cells to IC50 for human HT-29 cells; type: toxicity; conditions: Chinese hamster (CHO-K1), CHO-K1 cells versus HT-29 cells, read-out: Ratio IC50
[22] = Safety index, ratio of IC50 for CHO-K1 cells to IC50 for human U-937 cells; type: toxicity; conditions: Chinese hamster (CHO-K1), CHO-K1 cells versus U-937 cells, read-out: Ratio IC50
[23] = Safety index, ratio of IC50 for HEK293 cells to IC50 for human HT-29 cells; type: toxicity; conditions: HEK293 cells versus HT-29 cells, read-out: Ratio IC50
[24] = system: MCF7; assay: Cytotoxicity against human MCF7 cells assessed as inhibition of cell growth incubated for 48 hrs by MTT assay; type: functional, cell-based; conditions: MCF7, 48 h
[25] = Safety index, ratio of IC50 for HEK293 cells to IC50 for human A549 cells; type: toxicity; conditions: HEK293 cells versus A549 cells, read-out: Ratio IC50
[26] = system: PANC-1; assay: Antitumor activity against human PANC-1 cells xenografted in BALB/c nude mouse assessed as animal survival rate at 50 mg/kg, ip administered 3 times a week and measured for 100 days; type: functional; conditions: PANC-1, 2400 h, time 100 day
[27] = system: PANC-1; assay: Antitumor activity against human PANC-1 cells xenografted in BALB/c nude mouse assessed as reduction in tumor growth at 50 mg/kg, ip administered 3 times a week and measured on 30 days by caliper analysis; type: functional, organism-based; conditions: time 30.0 day

COc1cc(/C=C/C=C2\C(=O)Nc3nc(C)c(O)c(C)c32)ccc1O
inhibition at 30 µM [1]: 24.5%
inhibition at 30 µM [2]: 6.9%

Cc1nc2c(c(C)c1O)/C(=C/c1ccco1)C(=O)N2
inhibition at 30 µM [1]: 16.4%
inhibition at 30 µM [2]: 31.5%

Cc1nc2c(c(C)c1O)/C(=C/c1cccnc1)C(=O)N2
selectivity ratio [3]: 1.5
IC50 [4]: 9.6 µM
selectivity ratio [5]: 27.5
IC50 [6]: 13.8 µM
IC50 [7]: 20 µM
selectivity ratio [8]: 65.4
IC50 at 48 h [9]: 78.5 µM
selectivity ratio [10]: 2.3
selectivity ratio [11]: 1.9
IC50 at 48 h [12]: 33 µM
inhibition at 30 µM [1]: 72.8%
selectivity ratio [13]: 5.7
selectivity ratio [14]: 8.2
selectivity ratio [15]: 4.5
IC50 [16]: 1.2 µM
selectivity ratio [17]: 0.6
IC50 [18]: 51.3 µM
selectivity ratio [19]: 3.4
IC50 [20]: 14.5 µM
inhibition at 30 µM [2]: 78%
selectivity ratio [21]: 3.9
selectivity ratio [22]: 5.4
selectivity ratio [23]: 1.7
IC50 [24]: 17.4 µM
selectivity ratio [25]: 2.4

Cc1nc2c(c(C)c1O)/C(=C/c1ccc(N(C)C)cc1)C(=O)N2
selectivity ratio [3]: > 6.5
IC50 [4]: 12.1 µM
selectivity ratio [5]: > 81.8
IC50 [6]: 13.2 µM
IC50 [7]: 36.3 µM
selectivity ratio [8]: > 81.8
IC50 at 48 h [9]: > 90 µM
selectivity ratio [10]: > 1
selectivity ratio [11]: > 6.8
IC50 at 48 h [12]: > 90 µM
inhibition at 30 µM [1]: 66.4%
selectivity ratio [13]: > 6.8
selectivity ratio [14]: > 7.4
selectivity ratio [15]: > 6.8
IC50 [16]: 1.1 µM
selectivity ratio [17]: > 6.5
IC50 [18]: 13.8 µM
selectivity ratio [19]: > 7.4
IC50 [20]: > 90 µM
inhibition at 30 µM [2]: 62.5%
selectivity ratio [21]: > 2.5
selectivity ratio [22]: > 1
selectivity ratio [23]: > 2.5
IC50 [24]: 13.2 µM
selectivity ratio [25]: > 6.8

Cc1nc2c(c(C)c1O)/C(=C/c1ccccn1)C(=O)N2
inhibition at 30 µM [1]: 29.3%
inhibition at 30 µM [2]: 28.1%

Cc1nc2c(c(C)c1O)/C(=C/c1cnc[nH]1)C(=O)N2
inhibition at 30 µM [1]: 4.5%
inhibition at 30 µM [2]: 4.1%

Cc1nc2c(c(C)c1O)/C(=C/c1ccc(Cl)cc1)C(=O)N2
inhibition at 30 µM [1]: 45%
inhibition at 30 µM [2]: 51.7%

Cc1nc2c(c(C)c1O)/C(=C/c1ccc[nH]1)C(=O)N2
inhibition at 30 µM [1]: 16.9%
inhibition at 30 µM [2]: 27%

Cc1ccc(/C=C2\C(=O)Nc3nc(C)c(O)c(C)c32)s1
inhibition at 30 µM [1]: 30.2%
inhibition at 30 µM [2]: 53.4%

COc1ccc(/C=C2\C(=O)Nc3nc(C)c(O)c(C)c32)cc1
inhibition at 30 µM [1]: 36.4%
inhibition at 30 µM [2]: 23.9%

Cc1cc(C)c(/C=C2\C(=O)Nc3nc(C)c(O)c(C)c32)[nH]1
inhibition at 30 µM [1]: 44.8%
inhibition at 30 µM [2]: 47.3%

Nc1ccn([C@@H]2O[C@H](CO)[C@@H](O)C2(F)F)c(=O)n1 [GEMCITABINE]
survival at 50 mg/kg [26]: 80%
Activity [27]: inactive

Cc1nc2c(c(C)c1O)/C(=C/c1ccccc1O)C(=O)N2
inhibition at 30 µM [1]: 42.1%
inhibition at 30 µM [2]: 29.2%

Cc1ccc(/C=C2\C(=O)Nc3nc(C)c(O)c(C)c32)cc1
inhibition at 30 µM [1]: 29.2%
inhibition at 30 µM [2]: 32.3%

Cc1nc2c(c(C)c1O)/C(=C/c1nccs1)C(=O)N2
inhibition at 30 µM [1]: 9%
inhibition at 30 µM [2]: 5.6%

Cc1ccsc1/C=C1\C(=O)Nc2nc(C)c(O)c(C)c21
inhibition at 30 µM [1]: 47.3%
inhibition at 30 µM [2]: 59%

Cc1nc2c(c(C)c1O)/C(=C/c1cccc3[nH]ccc13)C(=O)N2
inhibition at 30 µM [1]: 32.3%
inhibition at 30 µM [2]: 14.5%
